Measured values as given in US20170129911A1, “COMPLEXES COMPRISING A PLATINUM COMPOUND AND AN IMMUNE CHECKPOINT INHIBITOR AND RELATED METHODS” (Massachusetts Institute of Technology, priority 2015, published 2017).
Entries after “also recorded” stand apart in the source; their conditions may differ.

Assays:
[1] = tested on: A2780/CP70 human ovarian cancer cells; assay: Cytotoxicity MTT assay, A2780/CP70; format: cell-based; conditions: cisplatin-sensitive and resistant ovarian cancer cell lines
Description: Ovarian carcinoma cells, NIH:OVCAR3, A2780, A2780/CP70, and SKOV3 were purchased from the American Type Culture Collection (ATCC, Rockville Md.). Peripheral blood mononuclear cells (PBMCs) of two different donors were obtained from Zen Bio Inc. (Research Triangle, NC). Cancer cell lines were maintained in Roswell Park Memorial Institute (RPMI) medium (glutamine-free supplemented with 10% fetal bovine serum, Atlanta Biologics, Atlanta Ga.) and 1% penicillin/streptomycin. PBMCs were thawed in specialized medium (10% […], 40% RPMI and 50% FBS) and subsequently cultured in RPMI containing 20% FBS. For T-cell proliferation experiments, PBMCs were stimulated by the addition of phytohemagglutinin (PHA-P). All cells were grown at 310 K in a humidified atmosphere containing 5% CO2. D-1-methyltryptophan, L-tryptophan and L-kynurenine were purchased from Sigma Aldrich.
The colorimetric MTT assay was used to determine the toxicity of 1, 2, and cisplatin. Cells (2×10^3) were seeded in each well of a 96-well plate. […] Cisplatin was prepared as a 5 mM solution in PBS and diluted using media. 1, 2 and C16—Pt-Suc-NHC2H4OH were prepared as 10 mM solution in DMSO and diluted using media. The final volume amount of DMSO in each well was 0.5%, and which was present in the untreated control as well. Cells co-incubated with cisplatin and (D)-1-MT were first pre-treated with 1 mM (D)-1-MT. […] The RPMI/MTT, mixture was aspirated and 100 μL of DMSO was added to dissolve the resulting purple formazan crystals. The absorbance of the solution wells was read at 570 and 650 nm. Absorbance values were normalized to DMSO-containing control wells and plotted as concentration of test compound versus % cell viability. IC50 values were interpolated from the resulting dose dependent curves. The reported IC50 values are the average of at least three independent experiments, each of which consisted of six replicates per concentration level.

human IDO in SKOV3 cells = assay: Immunoblotting and qRT-PCR of IDO expression in SKOV3 cells; format: cell-based; conditions: immunoblotting and qRT-PCR
Procedure: Total RNA was isolated with the Qiagen RNAeasy RNA isolation kit (Hilden, Germany) and cDNA was synthesized with the Applied Biosystems reverse-transcription-kit (Foster City, Calif., USA). qRT-PCR was performed in a Light cycler 480 II thermo cycler with SYBR Green PCR Mastermix (Roche). All primers were separated by at least one intron on the genomic DNA to exclude its amplification. PCR reactions were checked by including no-RT controls, by omission of templates, and by melting curves. Standard curves were generated for each gene. Relative quantification of gene expression was determined by comparison of threshold values. All samples were analyzed in duplicate at two different dilutions. All results were normalized to GAPDH.
Cells were washed with PBS, scraped into SDS-PAGE loading buffer (64 mM Tris-HCl (pH 6.8)/9.6% glycerol/2% SDS/5% β-mercaptoethanol/0.01% Bromophenol Blue), and incubated at 95° C. for 10 min. […] Membranes were blocked in 5% (w/v) bovine serum albumin in PBST (PBS/0.1% Tween 20) and incubated with the appropriate primary antibodies (Cell Signalling Technology and Santa Cruz). After incubation with horseradish peroxidase-conjugated secondary antibodies (Cell Signalling Technology), 1:1000, immuno complexes were detected with the ECL detection reagent (BioRad) and analyzed using UVP biospectrum imaging system fitted with a chemiluminescence filter.

SKOV3 cells [2] = assay: Subcellular distribution of platinum (GFAAS); format: cell-based, human; conditions: SKOV3, 5 μM, 17 h
Procedure: To gain further insight into the mode of action was studied of 1 and 2, the subcellular distribution of platinum. SKOV3 cells were incubated with the drug candidates (5 μM) for 17 h, using cisplatin as a control. The platinum content was measured by using GFAAS.
To measure cellular uptake, ca. 20 million SKOV3 cells were treated with 5 μM compounds 1, 2 and cisplatin at 37° C. for 17 h. The media were removed, and the cells were washed with PBS solution (1 mL×3), harvested, and centrifuged. The cell pellet was suspended in an appropriate volume of PBS to obtain a homogeneous suspension (100 μL). The nuclear and cytoplasmic extraction kit (NE-PER, Thermo Scientific Inc.) was used to extract the separate cytoplasmic, nuclear, and pelleted fractions. The fractions were mineralized with 70% HNO3 and then heated at 95° C. for 10 min. The platinum content was analyzed by GF-AAS. Cellular platinum levels were expressed as pmol of Pt per million cells. Results are presented as the mean of three determinations for each data point.

[3] = In vivo blood stability in mice
Procedure: The hydrophobic complex 2 was extracted with octanol, diluted, and the Pt concentration was determined by GFAAS.
The octanol extracts were diluted with methanol and analysed by GFAAS.

[4] = Whole human blood stability test; format: in vitro ADME
Procedure: To a volume of 0.8 mL fresh whole human blood (Innovative Research, Novi, Mich.) was added 24 μL of a DMSO solution of 2 (2.0 mM), resulting in a final concentration of 60 μM. After 5 sec of vortexing, a 100 μL aliquot of the blood sample (0 h time point) was immediately transferred to a new tube containing 300 μL of octanol, and the remaining […] of blood was incubated at 37° C. with rotation (1100 rpm). The blood-octanol mixture was vortexed for 2 min at R.T. and then centrifuged to separate the phases. The isolated octanol extract was diluted with methanol for GFAAS measurement. At varying time points (1 h, 2 h, 3 h, 5 h, and 7 h), a 100 μL aliquot was removed from the incubating blood and extracted as described above. For the 7 h sample, analytical HPLC was employed to confirm the integrity of the Pt compound. A standard of 2 and an octanol extract from blank whole human blood were used for comparison.

[5] = Tolerability/toxicity in mice; format: in vivo
HSA = HSA (Homo sapiens, UniProt P02768); assay: HSA binding (FPLC, GFAAS, ESI-MS); conditions: ESI mass-spectrometric analysis
SKOV3 cells [6] = assay: Cell cycle analysis by flow cytometry (DNA content)
IDO = IDO (Homo sapiens, UniProt P14902); assay: Cellular determination of kynurenine by HPLC in medium of SKOV3 cells; conditions: 2 10 μM vs (D)-1-MT 1 mM
[7] = Water-octanol partition coefficient (Log P), shake-flask method and GFAAS; conditions: octanol/PBS

HSA, sequence (P02768 25-609): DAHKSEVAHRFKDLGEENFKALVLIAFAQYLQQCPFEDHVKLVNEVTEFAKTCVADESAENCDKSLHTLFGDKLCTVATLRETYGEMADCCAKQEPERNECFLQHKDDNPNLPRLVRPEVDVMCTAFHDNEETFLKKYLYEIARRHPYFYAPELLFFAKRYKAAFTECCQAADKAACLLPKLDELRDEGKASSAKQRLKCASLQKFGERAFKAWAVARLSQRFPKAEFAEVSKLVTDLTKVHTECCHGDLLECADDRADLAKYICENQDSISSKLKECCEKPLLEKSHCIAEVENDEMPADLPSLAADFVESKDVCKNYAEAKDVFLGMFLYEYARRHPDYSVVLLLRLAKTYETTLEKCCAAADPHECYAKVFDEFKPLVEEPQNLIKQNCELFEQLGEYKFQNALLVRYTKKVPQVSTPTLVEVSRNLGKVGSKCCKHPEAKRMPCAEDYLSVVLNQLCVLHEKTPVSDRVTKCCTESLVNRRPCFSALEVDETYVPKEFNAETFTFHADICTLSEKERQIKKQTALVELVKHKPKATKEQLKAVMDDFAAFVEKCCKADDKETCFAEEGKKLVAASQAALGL
IDO, sequence (P14902 whole entry): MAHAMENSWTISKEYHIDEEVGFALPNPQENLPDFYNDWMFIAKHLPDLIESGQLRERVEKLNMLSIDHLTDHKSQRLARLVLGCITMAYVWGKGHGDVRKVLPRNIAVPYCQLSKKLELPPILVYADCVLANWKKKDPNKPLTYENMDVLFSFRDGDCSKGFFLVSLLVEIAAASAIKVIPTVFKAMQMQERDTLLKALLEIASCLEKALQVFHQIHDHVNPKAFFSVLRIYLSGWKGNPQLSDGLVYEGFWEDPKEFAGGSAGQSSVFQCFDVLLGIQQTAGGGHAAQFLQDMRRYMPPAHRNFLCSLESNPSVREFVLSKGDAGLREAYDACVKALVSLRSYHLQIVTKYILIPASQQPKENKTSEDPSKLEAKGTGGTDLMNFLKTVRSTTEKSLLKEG

Question: What does the source list for `CCCCCCCCCCCCCCCCNC(=O)[O][Pt]([NH2])([NH2])([Cl])([Cl])[O]C(=O)CCC(=O)NCCOC(=O)[C@H](N)Cc1cn(C)c2ccccc12` (mixture of isomers) [Compound 2, cis,cis,trans-[Pt(NH3)2Cl2(O2CC2H4OCNHC2H4O2C-D-1MT)(O2CNHC16H33)]]?
Answer: cross-resistance with cisplatin [1]: no cross-resistance with cisplatin; IDO protein expression (IDO inhibition) (human IDO in SKOV3 cells): effectively block IDO protein expression; platinum content within the nucleus (SKOV3 cells [2]): comparable to that of cisplatin; Pt concentration in blood (octanol extract) ([3]; 24 h after i.v. NP formulation of 2, 8 mg/kg): non-detectable levels; half-life ([3]; female, Balb/c, mouse, whole blood, iv, 8 mg/kg): ~1 h; half-life at 60 µM ([4]; fresh whole human blood, whole human blood, 60 μM, 37° C., read-out: t1/2 in human blood (converted)): 2.2 h; stability in blood ([4]; summary statement): stable in blood; toxicity / tolerance in mice [5]: low toxicity in mice; also recorded: mice are tolerant; binding to HSA (HSA): binds HSA; cell cycle arrest phase (SKOV3 cells [6]): cell cycle block at G1 phase; block of kynurenine release in the medium in comparison to (D)-1-MT (IDO): by a factor of three; logP at 3 h [7]: 1.35 ± 0.26
